Experimental data as given in patent publication US20240238232A1, “COMPOSITIONS AND METHODS FOR THE REDUCTION OR TREATMENT OF INSULIN RESISTANCE AND METABOLIC CONDITIONS” (AXCELLA HEALTH INC., priority 2018, published 2024).
Several values for one entry are separate records, joined by “and”; a condition that tells them apart may be missing. Identical values can stand only once.

Tested on: STAM™ model (NASH)
Test: NAFLD activity score (HE staining, Kleiner criteria) in STAM mice, Example 2
Format: in vivo, mouse
Design: key to NAFLD Activity Score (NAS), mean / NAFLD Activity Score: raw data: NAS = steatosis (0-3) + inflammation (0-2) + ballooning (0-2); key to NAFLD Activity: Steatosis Score, mean / NAFLD Activity: Steatosis Score: raw data: steatosis grade 0-3 (Kleiner criteria)
Conditions: A-1 1500 mg/kg twice daily, OCA 30 mg/kg once daily
Procedure: Amino Acid Composition A-1 and Obeticholic acid (6α-ethyl-chenodeoxycholic acid; “OCA”) were tested for their ability to treat NASH in the STAM™ model (Stelic Institute & Co., Tokyo, Japan; Saito K. et al., 2015 Sci Rep 5:12466). Two additional groups of normal C57BL/6 mice fed standard chow and vehicle treated STAM™ mice were included as controls. All animals receiving treatment or vehicle were treated starting at 6 weeks until 9 weeks of age. Compounds were administered via oral gavage, with a dose volume of 10 ml/kg. Amino Acid Composition A-1 was administered twice daily at a dose of 1500 mg/kg, and OCA was administered once daily at a dose of 30 mg/kg.
STAM™ is a model for non-alcoholic steatohepatitis (NASH) and hepatocellular carcinoma (HCC), developed by SMC Laboratories, Inc. and created by the combination of chemical and dietary interventions using C57BL/6 mice (Saito K. et al., 2015 Sci Rep 5:12466). Mice are treated with a low dose of streptozotocin at birth and fed a high fat diet starting at 4 weeks. Evidence of fatty liver is present by 5 weeks, followed by NASH by 7 weeks and fibrosis by 9 weeks.
NASH was induced in 53 male mice by a single subcutaneous injection of 200 μg streptozotocin (STZ, Sigma-Aldrich, USA) solution 2 days after birth and feeding with high fat diet (HFD, 57 kcal % fat, Cat #HFD32, CLEA Japan, Japan) after 4 weeks of age.
Amino Acid Composition A-1, OCA and Vehicle (described below) were administered by oral route in a volume of 10 mL/kg. Amino Acid Composition A-1 was solubilized in deionized water to 150 mg/ml (10 X). OCA (Advanced ChemBlocks Inc.) was resuspended in 0.5% methycellulose in water to 3 mg/ml (10 X). Amino Acid Composition A-1 was administered at a dose of 1500 mg/kg twice daily (9 am and 7 pm). OCA was administered at a dose of 30 mg/kg once daily (9 am).
Liver samples from mice in Group 2 (Vehicle), 3 (Amino Acid Composition A-1) and 4 (OCA) were used for the following assays. For HE staining, sections were cut from paraffin blocks of liver tissue prefixed in Bouin's solution and stained with Lillie-Mayer's Hematoxylin (Muto Pure Chemicals Co., Ltd., Japan) and eosin solution (Wako Pure Chemical Industries). NAFLD Activity score (NAS) was calculated according to the criteria of Kleiner (Kleiner D. E. et al., Hepatology, 2005; 41:1313).
The non-alcoholic fatty liver disease (NAFLD) activity score was assessed via histological analysis and grading of H&E stained liver sections from each animal. This score is the sum of three individual scores that grade the degree of steatosis (0-3), inflammation (0-2), and hepatocyte ballooning (0-2). All tissues were graded using the scoring criteria of Kleiner et al. (Kleiner et al. Hepatology. 2005; 41(6): 1313-21). Data are mean±standard deviation (stdev). […] Both Amino Acid Composition A-1 and OCA were statistically different from vehicle for NAFLD Activity Score when compared using Dunnett's multiple comparisons test (Amino Acid Composition A-1 p=0.0001, OCA p=0.0001).

[1] = STAM mice, oral, 6 to 9 weeks of age

**Q.** With `CC[C@H]1[C@@H](O)[C@@H]2[C@H](CC[C@]3(C)[C@@H]([C@H](C)CCC(=O)O)CC[C@@H]23)[C@@]2(C)CC[C@@H](O)C[C@@H]12` [OCA, 6α-ethyl-chenodeoxycholic acid] as the compound, how does the “NAFLD Activity Score (NAS), mean” value [1] read?
**A.** Its value is 2.9+/−0.74 and 2.9.

**Q.** What about the “NAFLD Activity: Ballooning Score, mean” value [1] of the same compound?
**A.** The value was 0.3+−0.48 and 0.3.

**Q.** And the “NAFLD Activity: Inflammation Score, mean” value [1]?
**A.** The value was 1.8.

**Q.** And the “NAFLD Activity: Steatosis Score, mean” value [1]?
**A.** The value was 0.8.

**Q.** What about the “NAFLD Activity Score: raw data” value (individual STAM mice) of the same compound?
**A.** The value was 2 (3×) and 4 (2×) and 3 (5×).

**Q.** What about the “NAFLD Activity: Ballooning Score: raw data” value (individual STAM mice) of the same compound?
**A.** The value was 0 (7×) and 1 (3×).

**Q.** What about the “NAFLD Activity: Inflammation Score: raw data” value (individual STAM mice) of the same compound?
**A.** Its value is 1 (4×) and 2 (4×) and 3 (2×).

**Q.** What about the “NAFLD Activity: Steatosis Score: raw data” value (individual STAM mice) of the same compound?
**A.** The value was 1 (8×) and 0 (2×).
